Laboratory results reported in ChEMBL document CHEMBL3507680, “University of Dundee, Gates Library screen for HepG2 cell viability”.

Experiment: Human HepG2 cell viability assay in 384 well format
Format: toxicity, cell-based
Design: dose 125 nL, time 70.5 hour; concentration not given beside the values
Conditions: HepG2 cells, read-out: Inhibition
O=C(O)c1cc(-c2cn[nH]c2)cc(S(=O)(=O)N2CCSCC2)c1 gave a cytotoxicity at 70.5 h of -4.23%.
c1cc(-c2noc(CN3CCc4c(ncn4C4CC4)C3)n2)cs1 showed a cytotoxicity at 70.5 h of -20.1%.
With COCCCN1CC2(CCN(Cc3cc(C(C)C)no3)CC2)CC1=O the cytotoxicity at 70.5 h was 0.169%.
O=C(Nc1ccc(-c2csnn2)cc1)N1CC[C@H](O)C1 showed a cytotoxicity at 70.5 h of -13.4%.
For Cc1nn(CC(=O)O)c(C)c1NS(=O)(=O)c1cc2ccccc2s1, the cytotoxicity at 70.5 h was 24.3%.
Compound CC(=O)c1c(O)n(C)c2ccc(C)cc12 has a cytotoxicity at 70.5 h of 1.11%.
With CNc1nc(C)c(C(=O)NCC(C)(C)N2CCCCC2)s1 the cytotoxicity at 70.5 h was -0.6%.
With O=C(CN1C[C@H]2CC[C@@H]1CN(Cc1ccccn1)C2)Nc1ccccc1 the cytotoxicity at 70.5 h was -6.28%.
With Cc1ccc(S(=O)(=O)N2C[C@H]3C[C@H](NC(=O)c4cc(C)no4)[C@H]3C2)cc1 the cytotoxicity at 70.5 h was -3.09%.
With Cc1ncc(CNC(=O)CCc2c(C)noc2C)c(C2CCCN2C)n1 (configuration not stated) the cytotoxicity at 70.5 h was -3.48%.
In the case of Cc1ccccc1C1CCCN1Cc1nc2c(cnn2C)c(=O)[nH]1 (configuration not stated), the cytotoxicity at 70.5 h is reported as -9.08%.
Cc1cnc(CNC(=O)[C@@]23CCO[C@@H]2CCNC3)cn1 gave a cytotoxicity at 70.5 h of 0.0687%.
Compound CC(CNC(=O)N1CCN(Cc2ccon2)CC1)N(C)C1CC1 (configuration not stated) has a cytotoxicity at 70.5 h of -1.74%.
Work on CNCc1cn(C2CCN(C(=O)NCc3ccco3)CC2)nn1 yielded a cytotoxicity at 70.5 h of -8.5%.
Work on CCNC(=O)C(C)NC(=O)Nc1ccccc1SCC (configuration not stated) yielded a cytotoxicity at 70.5 h of -16.9%.
CCC1CN(CC(=O)NCCN2CCCCC2)c2ccccc2S1 (configuration not stated) showed a cytotoxicity at 70.5 h of -3.08%.
With CC(C)(C)OC(=O)N1CCN(S(=O)(=O)CCCC#N)C2(CCCCC2)C1 the cytotoxicity at 70.5 h was -4.48%.
For O=c1n(Cc2cccc(C(F)(F)F)c2)nc2ncccn12, the cytotoxicity at 70.5 h was 24.8%.
Compound O=C(NC1CC(F)(F)C1)[C@]12COC[C@H]1CN(Cc1ccsc1)C2 has a cytotoxicity at 70.5 h of -2.91%.
For CC(=O)N1CCN(C(=O)CNc2c(C)cccc2OC(F)F)CC1, the cytotoxicity at 70.5 h was -10.2%.
COc1cccc(CNc2cc(CO)ccc2Cl)c1 gave a cytotoxicity at 70.5 h of -8.65%.
With COc1ncccc1CN1CC[C@H]2O[C@H](c3nnc(C)o3)CC[C@H]21 the cytotoxicity at 70.5 h was -11.5%.
Compound O=S(=O)(NCC(O)c1ccoc1)c1ccc(Br)s1 (configuration not stated) has a cytotoxicity at 70.5 h of -1.32%.
Work on CCc1nnc(NC(=O)c2ccc(C3CCCN3CC(C)C)s2)s1 (configuration not stated) yielded a cytotoxicity at 70.5 h of -2.96%.
With O=c1[nH]c(NCCO)nc2c1C1(CCCC1)Cc1ccccc1-2 the cytotoxicity at 70.5 h was 18.4%.
In the case of O=C(c1cnco1)N1CCCC(Cc2cccc3ncccc23)C1 (configuration not stated), the cytotoxicity at 70.5 h is reported as -0.138%.
For Cc1cc(C)c(CNC(=O)N(C)CC2CCCCO2)c(=O)[nH]1 (configuration not stated), the cytotoxicity at 70.5 h was -3.49%.
Compound Cc1nc(C)c(C(=O)OCCNc2ncccc2C#N)s1 has a cytotoxicity at 70.5 h of -11.1%.
Compound CCC(CC)C(=O)n1ccn(S(=O)(=O)c2ccc(C)cc2)c1=O has a cytotoxicity at 70.5 h of 15.1%.
With c1cc(-c2cn[nH]c2)ncc1CN1CCCCC1 the cytotoxicity at 70.5 h was -6.79%.
Compound CC[S+]([O-])CCc1nc(CC(C)C)nn1-c1ccc2c(c1)OCCO2 (configuration not stated) has a cytotoxicity at 70.5 h of 5.5%.
In the case of COc1cccc2c(=O)n(Cc3cccnc3)cnc12, the cytotoxicity at 70.5 h is reported as -6.26%.
Work on O=C(NCc1nncn1C1CCCCC1)C1CNCCO1 (configuration not stated) yielded a cytotoxicity at 70.5 h of -6.16%.
With O=C(NCc1ccc(N2CCSCC2)cc1)NCc1cc[nH]n1 the cytotoxicity at 70.5 h was -10.4%.
In the case of O=C(Cn1cc(-n2cccc2)cn1)NCC(F)(F)F, the cytotoxicity at 70.5 h is reported as -12.8%.
Work on CC(C)C(NC(=O)c1ccccc1F)C(=O)Nc1cnn(C)c1 (configuration not stated) yielded a cytotoxicity at 70.5 h of -13.2%.
COc1ccccc1CN(Cc1cccnc1)Cc1nccs1 showed a cytotoxicity at 70.5 h of 9.35%.
Compound COc1cccnc1NC(=O)COC1CCCC1 has a cytotoxicity at 70.5 h of 24.8%.
Compound Cc1cccc(CC2COCCN(Cc3nccn3C)C2)n1 (configuration not stated) has a cytotoxicity at 70.5 h of -2.76%.
Compound CC(C)N1CCC(C(=O)N2CCC(c3ccc(F)cc3)C2)CC1 (configuration not stated) has a cytotoxicity at 70.5 h of -20.4%.
CNS(=O)(=O)Cc1ccc(CNc2cncc(-n3cccn3)n2)cc1 showed a cytotoxicity at 70.5 h of -18.1%.
Work on Cn1cccc1CN1CCC2(CC1)CN(c1ncccn1)CCO2 yielded a cytotoxicity at 70.5 h of 1.85%.
CCN(Cc1cccc(Cl)c1)Cn1nc(C)c2c(C)onc2c1=O showed a cytotoxicity at 70.5 h of 25.1%.
Compound c1c2c(nn1CC1CC1)C(CNC1CCOCC1)OCC2 (configuration not stated) has a cytotoxicity at 70.5 h of -11.6%.
Compound CCCC(C)C(=O)N1CCC(n2cccc2C(=O)OC)CC1 (configuration not stated) has a cytotoxicity at 70.5 h of -2.08%.
Compound CCn1cc2c(n1)C(COCC1CC1)CN(C(=O)c1cnoc1C)C2 (configuration not stated) has a cytotoxicity at 70.5 h of -12.8%.
COCC(NC(=O)c1cnn(C)c1)c1cccc(C(F)(F)F)c1 (configuration not stated) showed a cytotoxicity at 70.5 h of 2.36%.
Compound O=C(c1cccs1)N1CCC2(CC1)CC(Oc1ccccc1)CO2 (configuration not stated) has a cytotoxicity at 70.5 h of -10.8%.
For Cc1cc(-c2nn3c(C4CC4)nnc3s2)on1, the cytotoxicity at 70.5 h was 12.2%.
Work on Cc1noc(C)c1CCCNc1cnccn1 yielded a cytotoxicity at 70.5 h of -16.9%.
Compound CN1CC=C(c2noc(CCC(=O)N3CCOCC3)n2)CC1 has a cytotoxicity at 70.5 h of -5.23%.
Work on CCc1cc(C(=O)N2CCC(c3cc4ncccc4cn3)CC2)on1 yielded a cytotoxicity at 70.5 h of -0.772%.
Cc1ccc2c(n1)N(CC1CC1)CCN(C(=O)c1ccncc1F)C2 showed a cytotoxicity at 70.5 h of 0.364%.
With COc1ccc(S(=O)(=O)NC2(CC(N)=O)CCC2)cc1 the cytotoxicity at 70.5 h was 20.9%.
CC(C)NC(=O)C(C(C)C)n1cnc2cc(F)c(F)cc21 (configuration not stated) gave a cytotoxicity at 70.5 h of -7.62%.
For CCCNc1ncc(C2CC(=O)NCc3nc4ccccn4c32)cn1 (configuration not stated), the cytotoxicity at 70.5 h was -8.46%.
Work on CCCn1nccc1C(=O)Nc1nc(C)c(C)s1 yielded a cytotoxicity at 70.5 h of 11.9%.
With Cc1oc(C(=O)O)cc1S(=O)(=O)Nc1cccc(-c2nccs2)c1 the cytotoxicity at 70.5 h was 6.48%.
With CC(CNC1CCN(c2ccccn2)CC1)Oc1ccc(F)cc1 (configuration not stated) the cytotoxicity at 70.5 h was 23.5%.
In the case of N#Cc1cccc(CN2CC3(CCCCN3c3cncnc3)CC2=O)c1 (configuration not stated), the cytotoxicity at 70.5 h is reported as -0.331%.
For N[C@H]1CC[C@@H](Nc2nccc(CCC(F)(F)F)n2)CC1, the cytotoxicity at 70.5 h was -2.71%.
With CN1CCN(C(=O)[C@H]2CC[C@@H]3[C@@H](CCN3Cc3nccs3)O2)CC1 the cytotoxicity at 70.5 h was -13.2%.
CCc1nnc(CN2CCCCC2Cn2cncn2)o1 (configuration not stated) showed a cytotoxicity at 70.5 h of 10.6%.
With Cc1nc(C)n(CC2CCCN2CC(=O)NCCc2cccs2)n1 (configuration not stated) the cytotoxicity at 70.5 h was -15.5%.
With COC(=O)c1sccc1S(=O)(=O)NCC1(O)CCOc2ccccc21 (configuration not stated) the cytotoxicity at 70.5 h was -4.94%.
COCCCNC(=O)CN(C)C(=O)c1ccccc1O showed a cytotoxicity at 70.5 h of -3.02%.
Compound CCc1nc(CNC(C)c2cccc(N3CCCC3=O)c2)cs1 (configuration not stated) has a cytotoxicity at 70.5 h of -12.3%.
Work on CCc1nccn1C1CCCN(C(=O)c2ccc3c(c2)nnn3C)C1 (configuration not stated) yielded a cytotoxicity at 70.5 h of -5.62%.
Work on CC(=O)N(CCc1ccccc1)CC(=O)Nc1ccccc1C#N yielded a cytotoxicity at 70.5 h of -1.29%.
In the case of CNc1ncc(CN(C)C(=O)c2cccc(-n3cnnc3)c2)cn1, the cytotoxicity at 70.5 h is reported as 11.7%.
Compound COc1ccc(NC(=O)C(c2cccc(F)c2)N2CCOCC2)cc1 (configuration not stated) has a cytotoxicity at 70.5 h of -8.8%.
Work on CN(C)C[C@@H]1CN(C(=O)c2cc(-c3ccccc3)n[nH]2)C[C@@H]1CO yielded a cytotoxicity at 70.5 h of 16.6%.
With Cc1cc(C)c(C#N)c(NCCSc2nncn2C)n1 the cytotoxicity at 70.5 h was -6.87%.
In the case of CC(C)c1nccn1C1CCCN(C(=O)c2ccnc(N(C)C)c2)C1 (configuration not stated), the cytotoxicity at 70.5 h is reported as -2.47%.
Work on O=C(c1ccoc1)N1CCO[C@]2(CCC[C@H]2COCc2cccnc2)C1 yielded a cytotoxicity at 70.5 h of -0.748%.
CN(Cc1nncn1C)C(=O)c1cc(COc2ccccc2F)[nH]n1 gave a cytotoxicity at 70.5 h of -11.1%.
With c1csc(CN2CCO[C@@H]3CN(C4CCOCC4)C[C@@H]3C2)c1 the cytotoxicity at 70.5 h was -10%.
CN(C)c1nc(NCCc2ccnn2C)ncc1F showed a cytotoxicity at 70.5 h of 23.5%.
For CCS(=O)(=O)N1CCc2ccc(NC(=O)Nc3cccc(C)c3)cc21, the cytotoxicity at 70.5 h was 17.9%.
Cc1nc(C)n(CC2CN(Cc3ccc4c(c3)OCCO4)CCO2)n1 (configuration not stated) showed a cytotoxicity at 70.5 h of -14.3%.
Work on O=C(NC1CCN(CC2CC2)C1)N1CCC(OC2CCCCC2)CC1 (configuration not stated) yielded a cytotoxicity at 70.5 h of 14.5%.
COCCCN1CCC(NC2CSCCc3ccccc32)CC1 (configuration not stated) gave a cytotoxicity at 70.5 h of 2.22%.
